From ChEMBL document CHEMBL5291721, “A preclinical secondary pharmacology resource illuminates target-adverse drug reaction associations of marketed drugs” (Nat Commun, 2023)

Tests used:
[1] = molecular target: Beta-2 adrenergic receptor (Homo sapiens, UniProt P07550); format: functional, cell-based
[2] = molecular target: 5-hydroxytryptamine receptor 2A (Homo sapiens, UniProt P28223)
Progesterone receptor = molecular target: T1, Progesterone receptor (Homo sapiens, UniProt P06401)
T1 sequence (P06401 whole entry): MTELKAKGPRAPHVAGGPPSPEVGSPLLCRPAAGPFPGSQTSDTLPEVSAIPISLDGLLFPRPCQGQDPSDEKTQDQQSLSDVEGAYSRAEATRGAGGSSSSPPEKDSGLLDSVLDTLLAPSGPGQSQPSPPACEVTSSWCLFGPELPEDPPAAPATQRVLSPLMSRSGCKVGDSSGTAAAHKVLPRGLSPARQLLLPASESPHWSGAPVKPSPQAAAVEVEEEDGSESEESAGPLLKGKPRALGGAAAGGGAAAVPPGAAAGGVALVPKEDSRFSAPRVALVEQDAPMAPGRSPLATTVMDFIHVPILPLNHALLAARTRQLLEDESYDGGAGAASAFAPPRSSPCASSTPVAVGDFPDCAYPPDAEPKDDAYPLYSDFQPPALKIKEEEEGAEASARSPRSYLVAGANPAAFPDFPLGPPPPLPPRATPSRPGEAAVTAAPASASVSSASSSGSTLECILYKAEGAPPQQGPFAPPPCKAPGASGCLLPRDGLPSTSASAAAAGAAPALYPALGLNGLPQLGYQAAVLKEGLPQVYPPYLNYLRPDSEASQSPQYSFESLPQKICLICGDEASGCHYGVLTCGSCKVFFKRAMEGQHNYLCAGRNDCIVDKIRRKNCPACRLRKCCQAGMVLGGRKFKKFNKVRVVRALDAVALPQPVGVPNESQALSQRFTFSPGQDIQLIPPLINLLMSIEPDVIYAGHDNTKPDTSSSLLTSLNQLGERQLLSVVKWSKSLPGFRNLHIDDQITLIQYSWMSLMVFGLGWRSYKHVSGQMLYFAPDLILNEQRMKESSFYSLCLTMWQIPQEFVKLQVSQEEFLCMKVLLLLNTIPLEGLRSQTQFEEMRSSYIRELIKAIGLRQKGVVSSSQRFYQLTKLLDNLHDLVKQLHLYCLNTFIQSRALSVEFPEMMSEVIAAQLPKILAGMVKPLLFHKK

Androgen receptor [3] = molecular target: T2, Androgen receptor (Rattus norvegicus, UniProt P15207); format: functional
T2 sequence (P15207 whole entry): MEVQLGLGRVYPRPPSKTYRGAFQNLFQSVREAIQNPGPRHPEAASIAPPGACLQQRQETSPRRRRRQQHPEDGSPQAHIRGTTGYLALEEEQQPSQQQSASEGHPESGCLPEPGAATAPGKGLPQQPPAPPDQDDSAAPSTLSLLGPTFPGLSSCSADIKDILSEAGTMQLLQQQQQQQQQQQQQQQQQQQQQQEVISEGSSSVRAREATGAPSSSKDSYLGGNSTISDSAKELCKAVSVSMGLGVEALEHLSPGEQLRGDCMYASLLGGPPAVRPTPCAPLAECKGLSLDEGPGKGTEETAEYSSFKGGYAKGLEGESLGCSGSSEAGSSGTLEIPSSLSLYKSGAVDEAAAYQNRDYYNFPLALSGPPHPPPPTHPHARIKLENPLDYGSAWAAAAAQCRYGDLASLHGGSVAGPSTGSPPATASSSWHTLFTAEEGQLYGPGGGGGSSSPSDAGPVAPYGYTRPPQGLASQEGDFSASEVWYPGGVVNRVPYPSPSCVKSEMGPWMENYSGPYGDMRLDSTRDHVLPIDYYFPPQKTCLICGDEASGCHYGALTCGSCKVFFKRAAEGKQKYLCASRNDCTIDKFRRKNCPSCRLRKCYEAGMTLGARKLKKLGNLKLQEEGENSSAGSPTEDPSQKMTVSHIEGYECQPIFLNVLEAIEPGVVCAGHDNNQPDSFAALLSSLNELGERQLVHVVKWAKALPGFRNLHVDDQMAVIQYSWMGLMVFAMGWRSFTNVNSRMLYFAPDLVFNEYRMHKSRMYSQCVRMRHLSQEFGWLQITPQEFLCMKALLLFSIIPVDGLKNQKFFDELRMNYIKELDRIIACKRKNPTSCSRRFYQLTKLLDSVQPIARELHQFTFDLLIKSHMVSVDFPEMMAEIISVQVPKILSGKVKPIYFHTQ

Androgen receptor [4] = molecular target: T2, Androgen receptor; format: functional; remark: listed apart in the source
[5] = molecular target: 5-hydroxytryptamine receptor 2B (Homo sapiens, UniProt P41595)
Sequence of 5-hydroxytryptamine receptor 2B (P41595 whole entry): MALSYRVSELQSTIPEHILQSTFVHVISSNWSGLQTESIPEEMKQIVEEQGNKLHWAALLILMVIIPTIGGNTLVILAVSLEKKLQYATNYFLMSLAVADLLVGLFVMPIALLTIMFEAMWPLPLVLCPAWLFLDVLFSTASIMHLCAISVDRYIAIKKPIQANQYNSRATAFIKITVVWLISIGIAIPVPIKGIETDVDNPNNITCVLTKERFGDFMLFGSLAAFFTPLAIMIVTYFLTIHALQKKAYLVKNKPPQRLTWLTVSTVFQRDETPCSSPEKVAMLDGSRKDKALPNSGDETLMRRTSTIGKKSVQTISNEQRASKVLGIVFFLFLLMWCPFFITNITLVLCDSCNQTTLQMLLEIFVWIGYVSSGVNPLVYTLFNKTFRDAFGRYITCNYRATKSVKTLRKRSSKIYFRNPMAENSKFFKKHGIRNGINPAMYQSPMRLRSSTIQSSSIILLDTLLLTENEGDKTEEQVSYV

D(1A) dopamine receptor = D(1A) dopamine receptor (Homo sapiens, UniProt P21728)
Sequence of D(1A) dopamine receptor (P21728 whole entry): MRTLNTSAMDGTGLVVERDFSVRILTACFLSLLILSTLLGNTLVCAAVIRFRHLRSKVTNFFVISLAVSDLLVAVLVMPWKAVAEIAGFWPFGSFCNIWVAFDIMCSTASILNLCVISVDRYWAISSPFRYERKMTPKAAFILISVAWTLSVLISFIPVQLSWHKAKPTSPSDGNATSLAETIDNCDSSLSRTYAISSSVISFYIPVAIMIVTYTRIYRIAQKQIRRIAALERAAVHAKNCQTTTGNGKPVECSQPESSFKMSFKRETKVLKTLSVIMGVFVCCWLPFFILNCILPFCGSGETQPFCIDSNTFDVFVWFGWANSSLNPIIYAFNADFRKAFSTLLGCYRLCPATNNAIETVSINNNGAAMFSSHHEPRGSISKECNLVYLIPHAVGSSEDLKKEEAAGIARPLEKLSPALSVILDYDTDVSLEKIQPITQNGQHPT
Further: assay procedure not described here.

Sequence of Beta-2 adrenergic receptor (P07550 whole entry): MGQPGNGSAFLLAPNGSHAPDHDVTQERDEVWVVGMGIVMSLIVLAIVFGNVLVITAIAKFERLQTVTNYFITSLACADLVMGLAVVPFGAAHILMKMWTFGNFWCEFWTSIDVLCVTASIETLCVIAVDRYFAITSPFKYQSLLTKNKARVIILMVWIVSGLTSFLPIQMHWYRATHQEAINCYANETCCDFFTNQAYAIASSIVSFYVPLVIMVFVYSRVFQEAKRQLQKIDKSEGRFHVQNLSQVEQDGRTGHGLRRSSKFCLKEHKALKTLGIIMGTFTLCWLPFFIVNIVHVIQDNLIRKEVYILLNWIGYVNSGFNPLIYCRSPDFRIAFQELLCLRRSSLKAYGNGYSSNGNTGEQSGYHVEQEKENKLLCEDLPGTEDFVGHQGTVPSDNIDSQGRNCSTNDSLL
Sequence of 5-hydroxytryptamine receptor 2A (P28223 whole entry): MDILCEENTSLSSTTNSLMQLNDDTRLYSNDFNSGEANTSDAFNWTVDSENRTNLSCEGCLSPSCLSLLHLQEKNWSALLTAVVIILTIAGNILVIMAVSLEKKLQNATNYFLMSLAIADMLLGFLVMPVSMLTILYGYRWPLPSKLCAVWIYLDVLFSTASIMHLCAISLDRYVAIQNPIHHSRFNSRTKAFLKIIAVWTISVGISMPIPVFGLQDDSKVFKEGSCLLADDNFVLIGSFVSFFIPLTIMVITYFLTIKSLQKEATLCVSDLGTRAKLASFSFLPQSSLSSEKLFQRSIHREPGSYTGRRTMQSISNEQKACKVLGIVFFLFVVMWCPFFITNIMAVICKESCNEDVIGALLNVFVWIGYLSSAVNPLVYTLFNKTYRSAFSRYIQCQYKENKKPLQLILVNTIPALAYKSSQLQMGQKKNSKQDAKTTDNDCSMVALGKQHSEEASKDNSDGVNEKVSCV

AC50 [1] | AC50 [2] | AC50 (Progesterone receptor) | AC50 (Androgen receptor [3]) | AC50 (Androgen receptor [4]) | AC50 [5] | SMILES | AC50 (D(1A) dopamine receptor)
> 30 µM | > 10 µM | 3.1 µM | > 30 µM | > 30 µM | – | CC(=O)O[C@H]1CC[C@@]2(C)C(=CC[C@@H]3[C@@H]2CC[C@]2(C)C(c4cccnc4)=CC[C@@H]32)C1 [ABIRATERONE ACETATE] | –
– | – | – | > 30 µM | > 30 µM | > 30 µM | COc1ccccc1OCCNCC(O)c1ccc(C)c(S(N)(=O)=O)c1 (stereo not given) [AMOSULALOL] | –
> 30 µM | – | – | > 30 µM | > 30 µM | – | CC(C)OC(=O)CCC/C=C\C[C@@H]1[C@@H](CC[C@@H](O)CCc2ccccc2)[C@H](O)C[C@@H]1O [LATANOPROST] | –

SMILES | AC50 [1] | AC50 [2] | AC50 (Progesterone receptor) | AC50 (Androgen receptor [3]) | AC50 (Androgen receptor [4]) | AC50 [5] | AC50 (D(1A) dopamine receptor)
CCN(CC)C(=O)N[C@H]1C[C@@H]2c3cccc4[nH]cc(c34)C[C@H]2N(C)C1 [TERGURIDE] | > 30 µM | – | – | > 30 µM | > 30 µM | – | 0.41 µM
